Patent EP1379634B1 (THE UNIVERSITY OF GEORGIA RESEARCH FOUNDATION, INC., priority 2001, dated 2002)
Residues, ends and D or L forms follow the SMILES beside them. *: point of attachment. AFC = O=c1cc(C(F)(F)F)c2ccc(N*)cc2o1; Cbz = O=C(OCc1ccccc1)*; CH2F = FC*

Assays:
[1] = system: purified Taenia solium cysteine protease; experiment: Substrate cleavage screen of AFC-linked peptides (Step II), purified protease; type: biochemical; settings: 0.4 M Citrate, pH 4.9, 0.01 M cysteine, 18 h, 37 °C
Method: (§1) In this step, the most efficacious substrate for detection of the cysteine protease (high Kcat substrate) was determined in vitro along with those substrates which were not well cleaved (low kcat substrates). From this point forward, the following conditions refer to all assays: "assay buffer" refers to 0.4 M Citrate, pH 4.9 (the pH optima of the protease). Incubation time was 18 hours at 37°C. These conditions were determined by our preliminary data to be best for kinetic evaluation of the protease. […] The experiments were conducted in 6X50 […] Borosilicate mini-culture tubes (Fisher Scientific), and a fluorometer (Turner) was employed for detection of AFC cleavage.
Since the full 8,420 amino acid possibilities for cleavage were not available, representative substrates were employed. […] In order to choose this subset, representative amino acids (i.e., selected from the categories of acidic, basic, nonpolar, uncharged) were chosen so as to create as many categories of motifs as feasible for the P3-P1 positions with a set of 67 small peptides (see lists at Fig. 4a and Fig. 4b). The target cysteine protease from Taenia solium was isolated using the purification methods described previously in the patent WO 00/63350.
Approximately 1 ug (or a proteolytically detectable amount) of the purified target cysteine protease was incubated individually, with 1 ug of each of the available substrates in 500 uL of assay buffer. During this setup, the substrate was pre-incubated in the assay buffer for a short period of time (20 minutes) in order to reach an equilibrated status before the addition of the protease. Cleavage assessments were based upon the property of the protease to cleave synthetic peptide substrates linked at the C-terminus to 7-Amino-4-Trifluoromethyl Coumarin (AFC) as previously described. AFC linked tripeptides, dipeptides, and monopeptides, (with a variety of permutations at P3-P1) were available from Enzyme Systems Products (Livermore, CA), and were used as the source of the subset. Following incubation of enzyme preparations overnight (18 h, 37 °C) with peptide in assay buffer (Citrate, pH 4.9, supplemented with 0.01 M cysteine), free AFC concentrations were measured fluorometrically (excitation 405 nm, emission 505 nm). The proteolytic cleavage released the AFC group, which was measurable as a free molecule by a standard fluorometer and converted into molar quantities, based upon a previously established standard curve. The simplicity of AFC detection by the fluorometer was a key factor which expedited and simplified the procedures.
In the assay, 1 ug of the purified Taenia cysteine protease was added to a saturating amount of Z-Phe-Arg-AFC (4X10^-5 M) in assay buffer. The experiment was conducted in triplicate and repeated at least 5 times until we were certain that variability in AFC cleavage was not statistically significant.
(§2) Vmax for the cleavage of substrates by the purified target protease and Vmax for substrates cleaved by the crude mix protease were each calculated using conventional kinetic modeling calculations already described in the art.

Taenia solium crude mix = experiment: Substrate cleavage screen of AFC-linked peptides (Step II), crude mix; type: biochemical; settings: 0.4 M Citrate, pH 4.9, 18 h, 37 °C
Method: as §1
In order to prepare the Taenia solium "crude mix", dry frozen Taenia solium cysts were obtained from 6-12 month old cysticercotic pigs from villages in an endemic area of porcine cysticercosis in Mexico. Metacestodes were carefully dissected from the parasitized tissues, washed three times with PBS, and lyophilized. Parasite extracts were prepared by suspending 0.1 grams of dry frozen cysts in 10 ml of extraction buffer (0.4 M citrate, pH 4.9) at room temperature. The cysts were vortexed for three five-minute intervals with intermittent incubations (5 min) at 4 °C. Particulate material was removed by centrifugation (20,000 x g, 120 min) and the resulting soluble fraction filtered ([…]). In assay buffers, the detectable amount of the crude mix, as described above, was employed and incubated with the target substrates.
as §2

Taenia crassiceps cysts = experiment: Short-term protection of BALB/c mice from cysticercosis infection; type: in vivo
[2] = system: purified Taenia solium cysteine protease; experiment: Protease inactivator inhibition assay against cocktail, EC100 and Ki (Step VII); type: biochemical; settings: for % Inhibition of T. solium CP in vitro: concentration not stated in Table 4; for ranking by EC100: dilution study, nanomolar levels
Excerpt: Once the protease inactivators were synthesized in the organic laboratory, they were to be tested for the lowest efficacious concentrations at which they induced 100% inhibition of the target protease (EC100). The top percent cocktail that was employed in the final vehicle selection step of Step III was employed as the source of competition for the inhibitors. In this case, this was the 7.9% cocktail that was comprised of Z-FR-AFC, Z-FAR-AFC, Z-AP-AFC, Z-AAK-AFC, and Z-VLR-AFC. The final result would be a ranking of transition state candidate protease inactivators with a high ranking directly correlating to a low EC100 value. The following steps describe the assay: • Step A: Initial Screening. To set up the test control, each protease inactivator was first incubated with the 5% cocktail (which provided the final differentiation of vehicles in Step III). To begin with, the protease inactivator was incubated at a concentration of 3 X 10^-9M in 500 ul of assay buffer (0.2 M Citrate, pH 4.9, supplemented with 10mM L-cysteine). This concentration was determined by a series of inhibitor dilutions to be the best inhibitor concentration at which a differentiation in inhibitor potential could be noted. Next, a concentration equal to 4 X 10^-5M for each of the individual cocktail components, was added to the mix. The components were allowed to equilibrate for a period of 30 minutes. Finally, active purified enzyme was added to the tubes at a concentration which was always at least 50 times less than the concentration of the lowest concentration in the mix (so as to provide saturating conditions.) This concentration varied from purification to purification, and the amount that was added depended upon the yield and specific activity of the purified protease. Positive controls were set up similarly as described for test controls, except that solvent was added in substitution for the protease inactivator (in a volume equal to the […] volume addition). All of the protease inactivators could be dissolved in dimethylsulfoxide (DMSO), and therefore, this was the solvent of choice. Negative controls were set up by adding the protease inactivator and the cocktail substrates in a tube, without the protease. All potential non-proteolytic induced liberation of AFC was therefore controlled for in this tube. All controls were set up in triplicate, and experiments repeated a minimum of five times. The assays were incubated at 37°C, overnight. Percent inhibition was calculated as: %Inhibition = ((AFC positive for "SI"−AFC negative for "SI")−(AFC test−AFC negative for "SI"))/(AFC positive for "SI"−AFC negative for "SI") × 100 [formula] • Step B: Inhibitor Dilution Studies and formation of a ranked list of protease inactivators based upon EC100 values. […] Because of this, a dilution study was required in order to determine a viable ranking. Thus, the concentration of each of the protease inactivators was lowered with a dose response setup until the most efficacious concentration for 100% inhibition (EC100) could be determined. The inhibitors had to be diluted to nanomolar levels in order to establish a differentiable EC100 pattern. The final result of the assay was a ranked candidate list of protease inactivators. A lower EC100 was attributable to a higher ranking and vice-versa. • Step C: Determination of Inhibitor Ki and mode of inhibition, and re-ranking of EC100 list with inhibitor Ki. Ki of each of the top ranked protease inactivators, based upon low EC100 values, was assessed next for the top 5 EC100 inhibitors.
In order to determine Ki, all of the high Vmax cocktail substrates were employed for Ki determination (since Ki of the inhibitor for the enzyme is the same regardless of the substrate). To insure the highest accuracy, Ki was to be determined upon a minimum of at least three of the high Kcat substrates. Nonlinear fitting and the Dixon plot were both employed to determine Ki of the top ranked protease inactivators. […]

Cathepsin L = Cathepsin L (Homo sapiens, UniProt P07711); experiment: Selectivity test (Steps VI and IX), Cathepsin L; type: biochemical; settings: inhibitor 3 X 10^-10 M; pH 5.5, substrate Z-FR-AFC; 0.0003 µM
Sequence of Cathepsin L (P07711 114-333): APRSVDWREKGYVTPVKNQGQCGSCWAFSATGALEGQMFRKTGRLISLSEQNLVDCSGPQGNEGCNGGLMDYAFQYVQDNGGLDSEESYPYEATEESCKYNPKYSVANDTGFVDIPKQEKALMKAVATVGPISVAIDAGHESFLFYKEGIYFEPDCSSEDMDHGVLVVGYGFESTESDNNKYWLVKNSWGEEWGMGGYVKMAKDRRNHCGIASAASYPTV
Method: (§3) In order to perform the assay, the vehicle (for Step VI) or inhibitor (for Step IX) were incubated with the appropriate substrate in the correct assay buffer and allowed to equilibrate. Subsequently, the protease was added, and the assay was allowed to incubate for an appropriate time. The concentrations used in this experiment were as follows: Vehicle was set up at 4 X 10^-5 M in final assay buffer; Inhibitor was set up at 3 X 10^-10 M in the final assay buffer. Preferably the dosages employed should be the minimal amount of vehicle or inhibitor necessary to induce inhibition. […] Substrates were set up based upon the preferred substrate for cleavage of the particular enzyme.
(§4) Positive controls were set up similarly as described for test controls, except that a solvent blank was added in substitution for the inhibitor or vehicle (in a volume equal to the volume of inhibitor or vehicle addition). All of the inhibitors and vehicles could be dissolved in dimethylsulfoxide (DMSO), and therefore, this was the solvent of choice. Negative controls were set up by adding the inhibitor or vehicle and the preferred substrates in a tube without the protease. All potential non-proteolytic liberation of AFC was therefore controlled for in this tube.
(§5) All controls were set up in triplicate, and experiments were repeated a minimum of five times.
(§6) Percent inhibition was calculated as: %Inhibition = ((AFC positive for "SI"−AFC negative for "SI")−(AFC test−AFC negative for "SI"))/(AFC positive for "SI"−AFC negative for "SI") × 100 [formula]
(§7) In this preliminary test, we employed the following human-derived enzymes (with indicated mechanistic class in parentheses): Cathepsin B (cysteine), Cathepsin L (cysteine), Cathepsin H (cysteine), Cathepsin D (aspartic), Trypsin (serine), the purified Taenia solium cysteine protease, and the Taenia solium crude mix. Cathepsin B was prepared in an assay buffer of 10 mM L-cysteine in 0.4 M Citrate buffer, pH 6.1, using Z-ARR-AFC as the cleavage substrate. Cathepsin L was prepared in an assay buffer of 10 mM L-cysteine in 0.4 M Citrate buffer, pH 5.5, using Z-FR-AFC as the cleavage substrate. Cathepsin H was prepared in an assay buffer of 10 mM L-cysteine in 0.15 M PBS buffer, pH 6.8, using L-R-AFC as the cleavage substrate. Cathepsin D was prepared in an assay buffer of 0.15 M PBS, pH 7.1, using Z-RGFFP-AFC as the cleavage substrate. Trypsin was prepared in an assay buffer of 0.15 M PBS, pH 8.0, supplemented with 100 mM CaCl2 and with Z-R-AFC as the cleavage substrate. Enzyme was incubated so that it was at least 50 times less than the concentration of substrate in order to insure saturating conditions.

T. solium (cysteine) = experiment: Selectivity test (Steps VI and IX), T. solium cysteine protease; type: biochemical, Taenia solium; settings: inhibitor 3 X 10^-10 M
Method: as §3, §4, §5, §6, §7

[3] = system: normal BALB/c mouse splenocytes; experiment: Splenocyte proliferation (3H-thymidine incorporation) with or without Con-A; type: cell-based
Trypsin = experiment: Selectivity test (Steps VI and IX), Trypsin; type: biochemical, human; settings: inhibitor 3 X 10^-10 M; pH 8.0, substrate Z-R-AFC; 0.0003 µM
Method: as §3, §4, §5, §6, §7

BALB/c mice = experiment: Observation of side effects in treated mice; type: in vivo

N=C(N)NCCC[C@H](NC(=O)[C@H](Cc1ccccc1)NC(=O)OCc1ccccc1)C(=O)Nc1ccc2c(C(F)(F)F)cc(=O)oc2c1 [Z-FR-AFC, Z-Phe-Arg-AFC, reference compound] (Cbz-Phe-Arg-{AFC}) was tested. Which “cleavage of AFC substrate (Vmax)” value [1] did it give?
The value was “cleaved”.

What about the “cleavage of AFC substrate (Vmax)” value ([1]; listed as Z-Phe-Arg-AFC) of the same compound?
The value was “highest Vmax”.

What about the “cleavage of AFC substrate (Vmax)” value (Taenia solium crude mix) of the same compound?
The value was “most cleaved”.

Which “cleavage of AFC substrate (Vmax)” value (Taenia solium crude mix) does the source give for C[C@H](NC(=O)OCc1ccccc1)C(=O)N[C@@H](C)C(=O)N[C@@H](CCCCN)C(=O)Nc1ccc2c(C(F)(F)F)cc(=O)oc2c1 [Z-AAK-AFC] (Cbz-Ala-Ala-Lys-{AFC}) here?
Its value is “most cleaved”.

Which results are given for “Leu-Phe-Ketoamide-Pyridyl [K-Pyr, reference compound]”?
% Prophylactic protection of BALB/c mice (Taenia crassiceps cysts; pre-injected two days, 10 T. crassiceps cysts/mouse, dosed daily four weeks, cysts counted after one month): 40%; % Inhibition of T. solium CP in vitro [2]: 80%

Which “ranking by EC100” value [2] does the source give for CC(C)C[C@@H](/C=C/S(C)(=O)=O)NC(=O)[C@H](CC(C)C)NC(=O)[C@H](CC(C)C)NC(=O)OCc1ccccc1 [Z-LLL-VS, Z-Leu-Leu-Leu-vinylsulfone] here?
The value was “top inhibitors”.

For CC(C)C[C@H](NC(=O)[C@@H](NC(=O)OCc1ccccc1)C(C)C)C(=O)N[C@@H](CCCNC(=N)N)C(=O)Nc1ccc2c(C(F)(F)F)cc(=O)oc2c1 [Z-VLR-AFC] (Cbz-Val-Leu-Arg-{AFC}), which “cleavage of AFC substrate (Vmax)” value (Taenia solium crude mix) is on record?
Its value is “most cleaved”.

With C[C@H](NC(=O)[C@H](Cc1ccccc1)NC(=O)OCc1ccccc1)C(=O)N[C@@H](CCCNC(=N)N)C(=O)Nc1ccc2c(C(F)(F)F)cc(=O)oc2c1 [Z-FAR-AFC] (Cbz-Phe-Ala-Arg-{AFC}) as the compound, how does the “cleavage of AFC substrate (Vmax)” value (Taenia solium crude mix) read?
The value was “most cleaved”.

For C[C@H](N)C(=O)N1CCC[C@H]1C(=O)Nc1ccc2c(C(F)(F)F)cc(=O)oc2c1 [AP-AFC] (H-Ala-Pro-{AFC}), which “cleavage of AFC substrate (Vmax)” value (Taenia solium crude mix) is on record?
The value was “most cleaved”.

What does the source list for CC(C)C[C@H](NC(=O)[C@H](CC(C)C)NC(=O)[C@H](CC(C)C)NC(=O)OCc1ccccc1)C(=O)CF [Z-LLL-FMK, Z-Leu-Leu-Leu-fluoromethylketone] (Cbz-Leu-Leu-Leu-CH2F)?
% inhibition (Cathepsin L): almost half of the inhibition of the Taenia solium cysteine protease; % Therapeutic protection of BALB/c mice (Taenia crassiceps cysts; inhibitor treatment began two weeks after infection): 60%; % Inhibition of T. solium CP in vitro [2]: 100%; ranking by EC100 [2]: top inhibitors; % inhibition (T. solium (cysteine)): 98%; proliferative response (3H-thymidine incorporation) ([3]; inhibitor alone): do not induce a proliferative response; toxicity to splenocytes in vitro ([3]; preliminary results): nontoxic; % inhibition (Trypsin): 0%; side effects in treated animals (BALB/c mice; long or short-term period): only negligible side effects; side effects in treated mice (BALB/c mice; long-term studies): no side effects
